Patent US10961202B2, “Bis-benzimidazole compounds and methods of using the same” (THE SCRIPPS RESEARCH INSTITUTE, priority 2017, dated 2021)
Where two headings read alike, the source gives them in different places.

Legend:
HSALR strain 20b mice [1] = assay: DM1 mouse efficacy study: RT-PCR of MBNL1-dependent splicing targets in gastrocnemius; format: in vivo; conditions: sc, 3 mg/kg qod 5 doses, subcutaneous
Source text: HSALR strain 20b mice were used as a model for myotonic dystrophy type I (DM1) experimental studies when testing the efficacy of candidate compounds. To determine the genotype of the mice, the transgene of human skeletal actin (HSA) genomic level was compared to endogenous mouse skeletal actin (MSA) by PCR. Mice with an HSA:MSA ratio of 2:1, homozygous mice were used for the study. Disease phenotype was confirmed in homozygous HSALR by assessing myotonia by pinching the quadriceps of the mouse. […] Homozygous HSALR that have been confirmed by PCR genotyping HSA:MSA ratio and are positive for pinch myotonia were selected for candidate compound efficacy studies for DM1.
For each study, a control group of PBS injected mice was included along with mice test groups injected with the compound to be tested. For a statistical power >80%, five mice were used per group (three females and two males). As previously indicated, homozygous HSALR mice were selected aged 8-12 weeks at the beginning of the study. Littermate mice were evenly distributed across groups in the study. Each cage contained mice from a single group. Female mice from different litters were combined into one cage for a single test group. Male mice cannot be combined in cages with non-littermate mice. If any fighting occurred in cages with multiple mice, the mice with minor/superficial fight wounds were be separated and monitored. Mice with severe fight wounds were removed from the study. Mice were monitored throughout the study for weight changes over time, behavioral changes at time of injection, and any other potential health concerns that arose during the study.
Mice were injected with approximately ˜200 μL solution subcutaneously by 28-gauge syringe. The volume administered was determined by the weight of the mouse where 10 iaL solution is administered per 1 g of the weight of the mouse. The compound was solubilized in DPBS at a concentration of […], which equated to a dose of 0.1-3.0 mg compound per kg weight of the animal (mpk). Mice were weighed once a week, and the volume of administered compound solution (or DPBS) was adjusted accordingly for correct mpk dosing. Once a compound was tested for acute toxicity in FVB wildtype mice, the compound was typically first tested at 3 mpk, injected every other day (q.o.d.) for five doses, and the mice sacrificed 24 hr after the last injection. Candidate compounds were further tested at different dose regimes to further assess the compound's efficacy in DM1 mice.
For each mouse, blood, brain, heart, liver, kidney, tibialis anterior, gastrocnemius, and quadriceps were dissected and collected. After the mouse was euthanized, blood was collected by cardiac puncture and placed in lithium heparin tubes on ice. Plasma was separated by centrifugation and collected. Brain, heart, half of the liver, tibialis anterior, gastrocnemius, and quadriceps were flash frozen in liquid nitrogen. Half of the liver, kidneys, and subset of heart samples were fixed in 10% formalin. One of the two tibialis anterior muscles was frozen with OCT for cyro-sectioning.
Gastrocnemius muscle was used for downstream RNA extraction RT-PCR. […] Half of one gastrocnemius was used for an RNA extraction. The gastrocnemius was homogenized in Trizol reagent and extracted following the protocol of the Zymo Direct-zol RNA Mini Prep Plus kit.
For each RNA sample, 500 ng of RNA was used for a reverse transcription reaction to produce single-stranded cDNA. MBNL1-dependent splicing targets (Clcn1 exon 7a, Mbnl1 exon 5, Sercal exon 22, and Zasp exon 11) and MBNL1-independent splicing targets (Capzb exon 8, Itgb1 exon 17) were assessed by RT-PCR. For the alternative exons listed, forward and reverse primers were designed to amplify the alternative exon along with the flanking constitutive exons such that one primer may produce two PCR products: one PCR product including the alternative exon and one PCR product excluding the alternative exon. […]

[2] = test system: MBNL1 exon 5 inclusion in DM1 myotubes; assay: Myotube splicing rescue assay (MBNL1 exon 5 inclusion); format: cell-based, human; conditions: 48-hour incubation
r(CUG)12-MBNL1 complex = assay: Inhibition of the r(CUG)12-MBNL1 complex measured by TR-FRET; format: biochemical; conditions: Table M; 80 nM RNA, 60 nM MBNL1-His6
HSALR strain 20b mice [3] = assay: DM1 mouse efficacy study: RT-PCR of MBNL1-dependent splicing targets in gastrocnemius; format: in vivo; conditions: sc, 7.5 mg/kg qod 5 doses, subcutaneous
[4] = read-out: Clcn1 exon 7a splicing rescue %
[5] = read-out: Mbnl1 exon 5 splicing rescue %
[6] = read-out: Serca1 exon 22 splicing rescue %
[7] = read-out: Zasp exon 11 splicing rescue %

Structure (SMILES): CN(C)CCCOc1cc2[nH]c(-c3ccc(-c4nc5cc(F)c(OCCCN(C)C)cc5[nH]4)cc3)nc2cc1F [Compound 277, (3-[[2-(4-[6-[3-(dimethylamino)propoxy]-5-fluoro-1H-1,3-benzodiazol-2-yl]phenyl)-5-fluoro-1H-1,3-benzodiazol-6-yl]oxy]propyl)dimethylamine; 2-hydroxypropane-1,2,3-tricarboxylic acid]
- percent splicing rescue at 3 mg/kg (HSALR strain 20b mice [1]; [4]): 30.3%
- percent splicing rescue at 3 mg/kg (HSALR strain 20b mice [1]; [5]): 19.9%
- percent splicing rescue at 3 mg/kg (HSALR strain 20b mice [1]; [6]): 13.2%
- percent splicing rescue at 3 mg/kg (HSALR strain 20b mice [1]; [7]): 24.2%
- MBNL1 % splicing rescue at 10 μM [2]: 51.0%
- IC50 (r(CUG)12-MBNL1 complex): 8.29 µM

Structure (SMILES): CN(C)CCCOc1ccc2nc(-c3ccc(-c4nc5ccc(OCCCN(C)C)cc5[nH]4)c(F)c3)[nH]c2c1 [Compound 286, (3-[[2-(4-[6-[3-(dimethylamino)propoxy]-1H-1,3-benzodiazol-2-yl]-3-fluorophenyl)-1H-1,3-benzodiazol-6-yl]oxy]propyl)dimethylamine]
- percent splicing rescue at 3 mg/kg (HSALR strain 20b mice [1]; [4]): 65.8%
- percent splicing rescue at 3 mg/kg (HSALR strain 20b mice [1]; [5]): 70.4%
- percent splicing rescue at 3 mg/kg (HSALR strain 20b mice [1]; [6]): 40.4%
- percent splicing rescue at 3 mg/kg (HSALR strain 20b mice [1]; [7]): 60%
- MBNL1 % splicing rescue at 10 μM [2]: 96.4%
- IC50 (r(CUG)12-MBNL1 complex): 14.2 µM

Structure (SMILES): c1cc2nc(-c3ccc(-c4nc5ccc(OCCCN6CCCCC6)cc5[nH]4)cc3)[nH]c2cc1OCCCN1CCCCC1 [Compound 214]
- percent splicing rescue at 3 mg/kg (HSALR strain 20b mice [1]; [4]): -31.6%
- percent splicing rescue at 3 mg/kg (HSALR strain 20b mice [1]; [5]): -17.3%
- percent splicing rescue at 3 mg/kg (HSALR strain 20b mice [1]; [6]): -5.1%
- percent splicing rescue at 3 mg/kg (HSALR strain 20b mice [1]; [7]): -12.1%
- MBNL1 % splicing rescue at 10 μM [2]: 119.3%
- IC50 (r(CUG)12-MBNL1 complex): 25.2 µM

Structure (SMILES): CN(C)CCOc1cccc(-c2nc3cc(-c4ccc5[nH]c(-c6cccc(OCCN(C)C)c6)nc5c4)ccc3[nH]2)c1 [Compound 354]
- percent splicing rescue at 3 mg/kg (HSALR strain 20b mice [1]; [4]): -14%
- percent splicing rescue at 3 mg/kg (HSALR strain 20b mice [1]; [5]): -0.1%
- percent splicing rescue at 3 mg/kg (HSALR strain 20b mice [1]; [6]): 0.1%
- percent splicing rescue at 3 mg/kg (HSALR strain 20b mice [1]; [7]): -0.1%
- MBNL1 % splicing rescue at 1 μM ([2]; 1 μM): 66.0%
- MBNL1 % splicing rescue at 10 μM [2]: 64.2%
- IC50 (r(CUG)12-MBNL1 complex): 16.5 µM

Structure (SMILES): CN1CCC(COc2ccc3nc(-c4ccc(-c5nc6ccc(OCC7CCN(C)CC7)cc6[nH]5)cc4)[nH]c3c2)CC1 [Compound 198, 1,4-bis(6-((1-methylpiperidin-4-yl)methoxy)-1H-benzo[d]imidazol-2-yl)benzene]
- percent splicing rescue at 3 mg/kg (HSALR strain 20b mice [1]; [4]): 55.1%
- percent splicing rescue at 3 mg/kg (HSALR strain 20b mice [1]; [5]): 49.7%
- percent splicing rescue at 3 mg/kg (HSALR strain 20b mice [1]; [6]): 22.3%
- percent splicing rescue at 3 mg/kg (HSALR strain 20b mice [1]; [7]): 35%
- MBNL1 % splicing rescue at 10 μM [2]: 109.8%
- IC50 (r(CUG)12-MBNL1 complex): 9.67 µM
- percent splicing rescue at 7.5 mg/kg (HSALR strain 20b mice [3]; [4]): 90.4%
- percent splicing rescue at 7.5 mg/kg (HSALR strain 20b mice [3]; [5]): 94.5%
- percent splicing rescue at 7.5 mg/kg (HSALR strain 20b mice [3]; [6]): 61.2%
- percent splicing rescue at 7.5 mg/kg (HSALR strain 20b mice [3]; [7]): 91.5%

Structure (SMILES): CN(C)CCCOc1ccc2nc(-c3cnc(-c4nc5ccc(OCCCN(C)C)cc5[nH]4)cn3)[nH]c2c1 [Compound 274]
- percent splicing rescue at 3 mg/kg (HSALR strain 20b mice [1]; [4]): 31.6%
- percent splicing rescue at 3 mg/kg (HSALR strain 20b mice [1]; [5]): 25.2%
- percent splicing rescue at 3 mg/kg (HSALR strain 20b mice [1]; [6]): 10.7%
- percent splicing rescue at 3 mg/kg (HSALR strain 20b mice [1]; [7]): 29.8%
- MBNL1 % splicing rescue at 10 μM [2]: 65.3%
- IC50 (r(CUG)12-MBNL1 complex): 12 µM
